The text below walks through data of patent publication US12630498B2 (Genzyme Corporation, priority 2019, dated 2026).

As usually defined, the EC50 is the concentration that produces a half-maximal response. In general, Emax refers to the maximal effect, on the per cent scale that the assay sets.

SMILES strings stand for the structures.

For the test, the target named is T1, human Cystic Fibrosis Transmembrane Conductance Regulator (CFTR) harboring the ΔF508 mutation (Homo sapiens, UniProt P13569, DEL508-508).
T1 construct: expressed in transfected cells; host or cells: H441 carcinoma line (G418-selected)
As to the kind of experiment: H441 cell ΔF508-CFTR-HRP cell surface assay (Emax and EC50). It counts as cell-based. Particulars: for Emax: NCI-H441, NA = Not active. From the text:
Example 315: H441 Cell Emax and EC50 Two cell lines were used, the H441 carcinoma line and the CFHBE41o- (41o-) human bronchial epithelial line. Both cell lines expressed human Cystic Fibrosis Transmembrane Conductance Regulator (CFTR) harboring the ΔF508 mutation and with an in-frame fusion in CFTR extracellular loop 4 of Horse Radish Peroxidase (HRP) under control of the CMV promoter. In the presence of the HRP tag, ΔF508-CFTR transported to the cell surface was detectable upon addition of an HRP substrate (Luminata Forte). Both cell types were cultivated at 37° C. with CO2. […] For both cell types, the medium was changed every other day unless the culture was at low % confluence. Cells were used for the assays at 75% confluence. To a polypropylene (PP) 384-well plate, 15 pls DMSO was added to all wells in columns 1-22 and 24 (low Control). 15 μls of 260 μM VX809 (Lumacaftor), Selleckchem […], was added to column 23 wells (high Control). 15 pls of 10 mM test compound or VX809 (control) were added to wells of row A. Serial dilutions of Row A compound were performed 2×15 pls in rows A through 0 (15-point). A PP, 384-well plate containing the appropriate cell culture medium was prepared for each assay plate with 100 pls per well. For the doxycycline-induced 41o-cells, doxycycline for both the assay plate and the medium dilution plate was added at 0.0005 mg/ml to the medium. Both cell lines were plated for the assay at 30 pls per 384-well at 3.4×10 e^5 cells per ml ( 10K cells/well). H441 cells were plated on opaque, white, Corning plate 3704. 41o-cells were plated on collagen-coated opaque, white, Corning plate 356665. For 41o-cells, doxycycline was added to the medium. Using FX (Beckman) protocol, 10 pls diluted compound or medium was added per well to the Assay Plate as: 2 pls DMSO Dilution plate well was diluted in 100 pls of the Medium Dilution Plate well, mixed, and 10 pls was transferred to the Assay Plate. The final assay dilution series was 24.5, 12.3, 6.1, 3.1, 1.5, 0.8, 0.4, 0.2, 0.1, 0.05, 0.02, 0.01, 0.006, 0.003, 0.001 and 0 μM. The 41o-assay plates were incubated at 37° C. w/CO2, the H441 assay plates were incubated at 27° C. w/CO2, each overnight for two nights. After being brought to room temperature, the assay plate liquid was removed. 30 uls of Luminata Forte (Millipore ELLUF0100) was added per well and incubated at room temperature for 10 min. The plates were then read on a Topcount, protocol LumiMatti (CPS, luminescence). The data was analyzed for % of maximum, maximum VX809 signal, and EC50 using Pearl and SPEED tools.

T1 sequence (P13569 with tags, fused parts or gaps DEL508-508): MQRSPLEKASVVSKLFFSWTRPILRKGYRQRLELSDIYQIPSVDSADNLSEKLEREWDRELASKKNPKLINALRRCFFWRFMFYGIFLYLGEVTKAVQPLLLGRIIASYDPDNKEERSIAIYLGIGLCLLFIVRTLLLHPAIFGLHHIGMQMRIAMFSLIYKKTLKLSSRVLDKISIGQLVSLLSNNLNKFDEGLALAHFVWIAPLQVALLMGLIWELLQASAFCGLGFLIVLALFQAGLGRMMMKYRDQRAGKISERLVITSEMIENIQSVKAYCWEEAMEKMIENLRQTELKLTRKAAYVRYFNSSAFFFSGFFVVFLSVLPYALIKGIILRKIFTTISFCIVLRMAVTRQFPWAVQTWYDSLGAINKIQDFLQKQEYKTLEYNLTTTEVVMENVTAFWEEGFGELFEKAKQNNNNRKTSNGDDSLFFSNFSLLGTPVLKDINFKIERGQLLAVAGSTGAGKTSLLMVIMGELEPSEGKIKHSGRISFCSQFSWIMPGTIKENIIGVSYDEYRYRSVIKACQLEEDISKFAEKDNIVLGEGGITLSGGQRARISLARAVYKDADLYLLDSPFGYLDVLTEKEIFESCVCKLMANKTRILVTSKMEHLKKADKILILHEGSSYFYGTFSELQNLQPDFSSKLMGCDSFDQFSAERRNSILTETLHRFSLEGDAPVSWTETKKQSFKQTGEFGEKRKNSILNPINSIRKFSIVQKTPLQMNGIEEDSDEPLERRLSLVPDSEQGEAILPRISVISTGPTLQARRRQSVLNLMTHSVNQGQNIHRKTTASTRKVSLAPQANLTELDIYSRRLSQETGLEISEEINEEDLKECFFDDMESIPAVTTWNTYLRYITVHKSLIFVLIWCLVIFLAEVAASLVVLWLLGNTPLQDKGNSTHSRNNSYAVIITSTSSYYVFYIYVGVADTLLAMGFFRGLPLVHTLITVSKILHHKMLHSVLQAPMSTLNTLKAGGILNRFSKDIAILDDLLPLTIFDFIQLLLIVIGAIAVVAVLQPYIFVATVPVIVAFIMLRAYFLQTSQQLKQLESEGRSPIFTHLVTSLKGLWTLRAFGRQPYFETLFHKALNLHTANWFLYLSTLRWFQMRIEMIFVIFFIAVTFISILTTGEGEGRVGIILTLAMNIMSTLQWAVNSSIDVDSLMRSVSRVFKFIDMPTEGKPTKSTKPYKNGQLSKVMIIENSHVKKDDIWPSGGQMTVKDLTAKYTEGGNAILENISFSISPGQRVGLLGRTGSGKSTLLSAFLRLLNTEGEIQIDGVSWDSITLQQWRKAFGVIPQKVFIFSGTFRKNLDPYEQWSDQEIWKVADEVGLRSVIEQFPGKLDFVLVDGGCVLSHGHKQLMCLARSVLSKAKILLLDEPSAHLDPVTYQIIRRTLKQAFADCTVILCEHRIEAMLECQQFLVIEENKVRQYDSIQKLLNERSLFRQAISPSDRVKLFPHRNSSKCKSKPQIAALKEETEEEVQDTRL

In the case of `CC(C)(C)[C@H](NC(=O)c1ccc2ccccc2c1OCc1ccc(OC(F)(F)F)cc1)C(=O)O` [Example 65, (S)-3,3-dimethyl-2-(1-((4-(trifluoromethoxy)benzyl)oxy)-2-naphthamido)butanoic Acid], a half-maximal effect (EC50) was put at 4.4 µM and the Emax was 8.7%.
The corresponding values for `CC(C)(C)[C@H](NC(=O)c1ccc2ccccc2c1OCc1ccc(S(C)(=O)=O)cc1)C(=O)O` [Example 66, (S)-3,3-dimethyl-2-(1-((4-(methylsulfonyl)benzyl)oxy)-2-naphthamido)butanoic Acid] are 2.1 µM and 12.8%.
The corresponding values for `CC(C)(C)[C@H](NC(=O)c1ccc2cc(F)ccc2c1OCC1CCC(F)(F)CC1)C(=O)O` [Example 76, (S)-2-(1-((4,4-difluorocyclohexyl)methoxy)-6-fluoro-2-naphthamido)-3,3-dimethylbutanoic Acid] are 7.1 µM and 58.3%.
For `CC(C)(C)[C@H](NC(=O)c1ccc2ccccc2c1OCc1ccc2c(c1)OCO2)C(=O)O` [Example 79, (S)-2-(1-(benzo[d][1,3]dioxol-5-ylmethoxy)-2-naphthamido)-3,3-dimethylbutanoic Acid], in that order: 2.5 µM and 9.1%.
Consider `CCC(C)(C)[C@H](NC(=O)c1ccc2cc(OC)ccc2c1OCc1ccc(C(F)(F)F)cc1)C(=O)O` [Example 83, (S)-2-(6-methoxy-1-((4-(trifluoromethyl)benzyl)oxy)-2-naphthamido)-3,3-dimethylpentanoic Acid], for which the EC50 worked out at 1.4 µM and the maximal response (Emax) was determined as 58.9%.
The corresponding values for `O=C(N[C@@H](Cc1ccccc1)C(=O)O)c1ccc2ccccc2c1OCc1ccc(C(F)(F)F)cc1` [Example 87, (1-((4-(trifluoromethyl)benzyl)oxy)-2-naphthoyl)-L-phenylalanine] are 2.1 µM and 103%.
Molecule `O=C(N[C@H](Cc1ccccc1)C(=O)O)c1ccc2ccccc2c1OCc1ccc(C(F)(F)F)cc1` [Example 89, (1-((4-(trifluoromethyl)benzyl)oxy)-2-naphthoyl)-D-phenylalanine] displayed a concentration giving a half-maximal response (EC50) of 1.4 µM and an Emax of 47.6%.
The corresponding values for `O=C(N[C@@H](Cc1ccccc1)C(=O)O)c1ccc2ccccc2c1OCc1ccc([N+](=O)[O-])cc1` [Example 91, (1-((4-nitrobenzyl)oxy)-2-naphthoyl)-L-phenylalanine] are 16.4 µM and 44.3%.
The corresponding values for `C=CCOc1ccc(C[C@H](NC(=O)c2ccc3ccccc3c2OCc2ccc(C(F)(F)F)cc2)C(=O)O)cc1` [Example 92, (S)-3-(4-(allyloxy)phenyl)-2-(1-((4-(trifluoromethyl)benzyl)oxy)-2-naphthamido)propanoic Acid] are 14 µM and 52.6%.
Turning to `O=C(N[C@@H](Cc1ccccc1)C(=O)O)c1ccc2ccccc2c1OCc1ccc(Cl)cc1` [Example 98, (1-((4-chlorobenzyl)oxy)-2-naphthoyl)-L-phenylalanine], the Emax turned out to be 6%.
For the molecule `COC(=O)[C@H](Cc1ccccc1)NC(=O)c1ccc2ccccc2c1OCc1ccc(Cl)c(Cl)c1` [Example 101, Methyl (1-((3,4-dichlorobenzyl)oxy)-2-naphthoyl)-L-phenylalaninate], the EC50 was 6.7 µM and the Emax stood at 79.1%.
Molecule `O=C(N[C@@H](Cc1ccccc1)C(=O)O)c1ccc2ccccc2c1OCc1cccc2c1OC(F)(F)O2` [Example 102, (1-((2,2-difluorobenzo[d][1,3]dioxol-4-yl)methoxy)-2-naphthoyl)-L-phenylalanine] had an EC50 of 8 µM and an Emax of 33.7%.
`O=C(N[C@@H](Cc1ccncc1)C(=O)O)c1ccc2ccccc2c1OCc1ccc(C(F)(F)F)cc1` [Example 103, (S)-3-(pyridin-4-yl)-2-(1-((4-(trifluoromethyl)benzyl)oxy)-2-naphthamido)propanoic Acid] had an Emax of 22.4%.
